Holding throughout (assay type): in vivo
One series relates to Spodoptera litura. In words: Insecticidal activity test against Spodoptera litura (leaf dip, cabbage leaf discs). The settings on record: foliar; for mortality at 0.4 ppm: 3rd day after treatment; for mortality at 0.04 ppm / mortality at 0.1 ppm: 72 h, 3 d. Here is the method: (§1) Various kinds of pests were tested with the compounds of this invention. Unless otherwise specified, the preparation method of samples and definition of the mortality rate of the insects in the embodiments and this invention are as follows: the preparation method of samples is to weigh 10 mg of the compound and dissolve it in 1 mL DMF to prepare 10,000 ppm mother liquid, which is diluted to necessary concentration by 0.05% Tween-80 water, respectively. The mortality rate is the mortality rate of pests under the test concentration, whose calculating formula is: mortality rate (%)=Number of dead pests/total pests*100
The leaf dip method was used to assay the insecticidal activity. Healthy and pesticide-untreated cabbage leaves was selected to prepare 1 cm of leaf discs by diameter. Dip the leaf discs into the solution prepared with compound of this invention for 10 seconds and dry them in a cool […] environment. Then place them in 24-well plate with 3 discs per pore. Put 10 of Spodoptera litura into each pore, which was repeated by 3 times. The 24-well plate was placed in an illumination incubator and incubated with 14 hL: 10 hD illumination at 25° C. The dead number of Spodoptera litura was investigated on the 3rd day after treatment, and the mortality was calculated.

Another series concerns Chilo suppressalis. As to the kind of experiment: Insecticidal activity test against Chilo suppressalis (rice stem dip). Here is the method:
as §1
The rice was cultivated in a plastic pot with a diameter of 9 cm and a height of 10 cm. When the rice grew to 25 cm, the aerial part of robust and consistent rice seedlings was selectively cut. Their leaves were removed and their stems of about 8 cm were kept for use. Pour the solution prepared with compound of this invention into the Petri dish (about 40 mL) and dip the rice stems into the solution for 10 seconds. Take rice stems out and dry them in a cool environment. Put a wet cotton ball at the bottom of finger-like glass tube and 5 rice stems in each tube. Put 10 of 3rd-instar larvae of Chilo suppressa into each tube, which was repeated by 3 times. Seal the tubes with black cotton cloth and tighten them with rubber band. The tubes were placed in a illumination incubator at 28° C. and incubated in the dark (incubated without light). The dead number of Chilo suppressalis was investigated 3 days after treatment. The mortality was calculated.

For the next series, the system named is Mythimna separata. As to the kind of experiment: Insecticidal activity test against Mythimna separata (leaf dip, maize seedlings). The following applies: foliar; for mortality at 0.04 ppm: 3rd day after treatment, read-out: insecticidal activity (mortality of Mythimna separate). As for the experimental part: as §1
(§2) The leaf dip method was used to assay the insecticidal activity. Cut above ground part of fresh maize seedlings (about 10 cm). Dip the maize seedlings into the solution prepared with compound of this invention for 10 seconds and dry them in a cool environment. Then cut the dry maize seedlings into 3-5 cm leaf sections and put 3 leaf sections into each petri dish. Put ten of 3th-instar larvae of Mythimna separatas into each dish, which was repeated by 3 times. Then the dishes were placed in an illumination incubator and incubated with 14 hL: 10 hD illumination at 25° C. Symptoms were investigated on the 1st, 2nd and 3rd day after treatment, and the mortality was calculated.

The test system of the next series is Spodoptera frugiperda. In words: Insecticidal activity test against Spodoptera frugiperda (leaf dip, maize seedlings). The settings on record: for mortality at 0.1 ppm / mortality at 1 ppm: Spodoptera frugiperda, foliar; for mortality at 1 ppm: read-out: insecticidal activity (mortality of Spodoptera frugiperda); for Mortality (%) against Spodoptera frugiperda, 1 d / Mortality (%) against Spodoptera frugiperda, 2 d / Mortality (%) against Spodoptera frugiperda, 3 d: 0.1 ppm, leaf dip, 3rd-instar larvae; for Mortality (%) against Spodoptera frugiperda, 1 d: 1st day after treatment; for Mortality (%) against Spodoptera frugiperda, 2 d: 2nd day after treatment; for Mortality (%) against Spodoptera frugiperda, 3 d: 3rd day after treatment. Here is the method: as §1
as §2, with “Spodoptera frugiperda” for “Mythimna separatas”

In the next series the test system is Aphis craccivora. In words: Insecticidal activity test against Aphis craccivora (broad bean leaf dip). As for the experimental part:
as §1
Cut a single leaf of broad bean with stem and insert it into a glass jar filled with water (capacity of 20 ml). Five adult Aphis craccivoras were seeded onto each leaf, and covered with plastic cups with holes. The adult aphids were removed after 24 hours. Before the experiment, the base number was investigated and the single leaf with more than 15 nymphs aphids was selected for the experiment. Dip leaf of broad bean with nymphs aphids into the solution of test compound 10s, take out and dry them in a cool environment, 3 parallel repeats. Place the glass jars on the shelf of observation room and covered with plastic cups with holes. 20-25° C. with 14 hL: 10 hD illumination. The number of Aphis craccivora death and alive was investigated on the 3rd day after treatment, and the mortality was calculated.

The mark [1] stands for this setting: 3rd day after treatment, read-out: insecticidal activity (mortality of Chilo suppressalis).
Setting [2] is: 24 h, read-out: Mortality (%) against Spodoptera frugiperda, 1 d.
Setting [3] is: 48 h, read-out: Mortality (%) against Spodoptera frugiperda, 2 d.
The mark [4] stands for this setting: 72 h, read-out: Mortality (%) against Spodoptera frugiperda, 3 d.
Setting [5] is: 72 h, 3 d, read-out: Mortality (%, 3 d) 1 ppm.
[6] abbreviates: 72 h, 3 d, read-out: Mortality (%, 3 d) 2 ppm.

The structures appear in SMILES notation. Like-named read-outs stand apart in the source and are kept apart here.

In general, mortality refers to the percentage killed. On to `O=C(Nc1c(Br)cc(C(F)(C(F)(F)F)C(F)(F)F)cc1OC(F)F)c1cccc(N(CC2CC2)C(=O)c2ccc(F)nc2)c1F` [Compound 118, N-(3-((2-bromo-6-(difluoromethoxy)-4-(perfluoropropan-2-yl)phenyl)carbamoyl)-2-fluorophenyl)-N-(cyclopropylmethyl)-6-fluoronicotinamide], for which, in the series on Spodoptera litura, the mortality at 0.4 ppm was not below 90%. Further, the mortality at 0.04 ppm in the series with Spodoptera litura was 66.7%; with Mythimna separata, not below 90%. For the same compound, the mortality at 0.1 ppm with Spodoptera litura worked out at 95.8%; with Spodoptera frugiperda (setting [2]), 29.2%; with Spodoptera frugiperda (setting [3]), 66.7%; in the series with Spodoptera frugiperda (setting [4]), 91.7%. Also, the mortality at 1 ppm in the series with Chilo suppressalis (setting [1]) and with Spodoptera frugiperda was not below 90% throughout. For the same compound, the mortality at 40 ppm in the series with Aphis craccivora (Aphis craccivora, foliar, 40 ppm, 3rd day after treatment, read-out: insecticidal activity (mortality of Aphis craccivora)) is not below 90%.
Regarding `CCN(C(=O)c1ccc(F)cc1)c1cccc(C(=O)Nc2c(Br)cc(C(F)(C(F)(F)F)C(F)(F)F)cc2OC(F)F)c1F` [KC1, reference compound], the mortality at 0.01 ppm with Mythimna separata (24 h, 1 d, read-out: Mortality (%) 1 d) is 6.67%; with Mythimna separata (48 h, 2 d, read-out: Mortality (%) 2 d) it was 16.7%; in the series with Mythimna separata (72 h, 3 d, read-out: Mortality (%) 3 d), 20%.
For the compound `O=C(Nc1c(Br)cc(C(F)(C(F)(F)F)C(F)(F)F)cc1OC(F)F)c1cccc(N(CC2CC2)C(=O)c2ccnc(F)c2)c1F` [Compound 120], in the series on Spodoptera frugiperda, the “Mortality (%) against Spodoptera frugiperda, 1 d” value (from here on “Mortality (%) … 1 d”) worked out at 58.33%; the “Mortality (%) against Spodoptera frugiperda, 2 d” value (from here on “Mortality (%) … 2 d”) amounted to 100%; the “Mortality (%) against Spodoptera frugiperda, 3 d” value (from here on “Mortality (%) … 3 d”) turned out to be 100%.
In the case of `O=C(Nc1c(Br)cc(C(F)(C(F)(F)F)C(F)(F)F)cc1C(F)(F)F)c1cccc(N(CC2CC2)C(=O)c2ccc(F)cc2)c1F` [KC4, reference compound], in the series on Spodoptera litura, the mortality at 0.04 ppm stood at 8.83% and the mortality at 0.1 ppm came to 75%. The compound further returned a mortality at 1 ppm in the series with Aphis craccivora (Aphis craccivora, foliar, 72 h, 1 ppm, 3 d) of 0%. In addition, in the series on Aphis craccivora (Aphis craccivora, foliar, 72 h, 10 ppm, 3 d), the mortality at 10 ppm was 47.1%. The mortality at 40 ppm in the series on Aphis craccivora (Aphis craccivora, foliar, 72 h, 40 ppm, 3 d, read-out: Mortality (%, 3 d) 40 ppm) was 65.2%.
In turn, `O=C(Nc1c(Br)cc(C(F)(C(F)(F)F)C(F)(F)F)cc1OC(F)F)c1cccc(N(CC2CC2)C(=O)c2ccccc2)c1F` [Compound 1, N-(2-bromo-4-(perfluoropropan-2-yl)-6-(difluoromethoxy)phenyl)-3-(N-(cyclopropylmethyl)benzamido)-2-fluorobenzamide] yielded a mortality at 0.4 ppm in the series on Spodoptera litura not below 90%. Also, the results for the mortality at 1 ppm in the series with Chilo suppressalis (setting [1]), in the series on Chilo suppressalis (setting [5]) and in the series with Spodoptera frugiperda were not below 90%, 96.7% and not below 90%, respectively. Also, in the series on Chilo suppressalis (72 h, 3 d), the mortality at 0.5 ppm amounted to 76.7%. Also, the mortality at 2 ppm in the series on Chilo suppressalis (setting [6]) amounted to 100%. The mortality at 0.04 ppm in the series with Mythimna separata was not below 90%.
Consider `O=C(Nc1c(Br)cc(C(F)(C(F)(F)F)C(F)(F)F)cc1OC(F)F)c1cccc(N(CC2CC2)C(=O)c2ccnc(Cl)c2)c1F` [Compound 119], for which, in the series with Spodoptera frugiperda, the “Mortality (%) … 1 d” value was found to be 54.17%; the “Mortality (%) … 2 d” value is given as 79.17%; the “Mortality (%) … 3 d” value is reported as 91.67%.
The matching figures for `O=C(Nc1c(Br)cc(C(F)(C(F)(F)F)C(F)(F)F)cc1OC(F)F)c1cccc(N(CC2CC2)C(=O)c2ccc(Cl)cc2)c1F` [Compound 44]: 37.50%, 62.50% and 91.67%.
As to `O=C(Nc1c(Br)cc(C(F)(C(F)(F)F)C(F)(F)F)cc1C(F)(F)F)c1cccc(N(CC2CC2)C(=O)c2ccc(F)nc2)c1F` [Compound 106, N-(3-((2-bromo-4-(perfluoropropan-2-yl)-6-(trifluoromethyl)phenyl)carbamoyl)-2-fluorophenyl)-N-(cyclopropylmethyl)-6-fluoronicotinamide], the mortality at 0.4 ppm in the series with Spodoptera litura was not below 90%. For the same compound, the mortality at 1 ppm with Chilo suppressalis (setting [1]) and in the series on Spodoptera frugiperda was not below 90% each time. For the same compound, the mortality at 0.04 ppm with Mythimna separata is not below 90%. In addition, the mortality at 0.1 ppm in the series on Spodoptera frugiperda (setting [2]) came out at 41.7%; in the series on Spodoptera frugiperda (setting [3]), 62.5%; with Spodoptera frugiperda (setting [4]), 95.8%.
As for `N#Cc1ccc(C(=O)N(CC2CC2)c2cccc(C(=O)Nc3c(Br)cc(C(F)(C(F)(F)F)C(F)(F)F)cc3OC(F)F)c2F)cc1` [Compound 14], in the series on Spodoptera frugiperda, the “Mortality (%) … 1 d” value came to 29.17%; the “Mortality (%) … 2 d” value turned out to be 79.17%; the “Mortality (%) … 3 d” value stood at 95.83%.
Take `O=C(Nc1c(Br)cc(C(F)(C(F)(F)F)C(F)(F)F)cc1OC(F)(F)F)c1cccc(N(CC2CC2)C(=O)c2ccccc2)c1F` [KC3, reference compound]: the mortality at 0.5 ppm with Chilo suppressalis (72 h, 3 d) was 20%. The mortality at 1 ppm with Chilo suppressalis (setting [5]) was determined as 80%. Moreover, the mortality at 2 ppm with Chilo suppressalis (setting [6]) was found to be 96.7%. For the same compound, the figures for the mortality at 0.1 ppm in the series on Spodoptera frugiperda (setting [2]), in the series with Spodoptera frugiperda (setting [3]) and in the series on Spodoptera frugiperda (setting [4]) were 0%, 0% and 4.17%, respectively.
On to `O=C(Nc1c(Br)cc(C(F)(C(F)(F)F)C(F)(F)F)cc1C(F)(F)F)c1cccc(N(CC2CC2)C(=O)c2ccncc2)c1F` [Compound 101], for which, in the series on Aphis craccivora (1 ppm, 3 d), the “Mortality (%, 3 d) 1 ppm” value was found to be 39.11%. In addition, the “Mortality (%, 3 d) 10 ppm” value in the series on Aphis craccivora (10 ppm, 3 d) is 83.26%. Also, in the series on Aphis craccivora (40 ppm, 3 d), the “Mortality (%, 3 d) 40 ppm” value turned out to be 100.00%.
For the compound `CC(C1CC1)N(C(=O)c1ccnc(Cl)c1)c1cccc(C(=O)Nc2c(Br)cc(C(F)(C(F)(F)F)C(F)(F)F)cc2C(F)(F)F)c1F` (stereo not drawn) [Compound 124, N-(3-((2-bromo-4-(perfluoropropan-2-yl)-6-(trifluoromethyl)phenyl)carbamoyl)-2-fluorophenyl)-2-chloro-N-(1-cyclopropylethyl)isonicotinamide], the mortality at 2 ppm with Chilo suppressalis (setting [1]) was not below 90%.
As for `CCN(C(=O)c1ccncc1)c1cccc(C(=O)Nc2c(Br)cc(C(F)(C(F)(F)F)C(F)(F)F)cc2OC(F)F)c1F` [KC2, reference compound], the mortality at 0.1 ppm with Spodoptera frugiperda (setting [2]) amounted to 0%; in the series on Spodoptera frugiperda (setting [3]) it was 8.33%; in the series with Spodoptera frugiperda (setting [4]), 20.8%.

The record behind these values is patent publication US20220081389A1, “AMIDE COMPOUNDS AND PREPARATION METHOD THEREFOR AND USE THEREOF” (CAC NANTONG CHEMICAL CO., LTD., priority 2019, published 2022).
